The results in this text go back to ChEMBL document CHEMBL4346659, “Design, synthesis and evaluation of novel 7H-pyrrolo[2,3-d]pyrimidin-4-amine derivatives as potent, selective and reversible Bruton's tyrosine kinase (BTK) inhibitors for the treatment of rheumatoid arthritis” (Eur J Med Chem, 2019).

The source made the active and inactive calls. The calls are words filed in the database; no cut-off is given here.

In data set [1] the target is Proto-oncogene tyrosine-protein kinase Src (Homo sapiens, UniProt P12931). Kind of data set: Inhibition of human recombinant SRC using Ulight-Poly GAT[EAY(1:1:1) as substrate measured after 10 mins in the presence of ATP by LANCE method. For orientation: TR-FRET usually uses a lanthanide donor and a delayed reading to cut background.
Data set [2] deals with Tyrosine-protein kinase Lck (Homo sapiens, UniProt P06239). Kind of data set: Inhibition of human recombinant LCK using Ulight-Poly GAT[EAY(1:1:1) as substrate measured after 10 mins in the presence of ATP by LANCE method.
Data set [3] has as its system Mus musculus. As to the kind of experiment: Antiarthritic activity in DBA1/J mouse model of collagen-induced arthritis assessed as reduction in bone erosion at 60 mg/kg, po qd by micro-CT analysis. The format is functional, organism-based.
Data set [4] addresses Receptor tyrosine-protein kinase erbB-2 (Homo sapiens, UniProt P04626). As to the kind of experiment: Inhibition of human recombinant HER2 using biotinyl-beta amyloid beta amyloid beta AAEEEEYFELVAKKK measured after 10 mins in the presence of ATP by HTRF assay.
The target in data set [5] is T1, Tyrosine-protein kinase BTK (Homo sapiens, UniProt Q06187). As to the kind of experiment: Inhibition of BTK (unknown origin) in the presence of ATP by caliper mobility shift assay.
Data set [6] relates to Mus musculus. As to the kind of experiment: Antiarthritic activity in collagen-induced DBA1/J mouse arthritis model assessed as reduction injoint inflammation at 30 mg/kg or 60 mg/kg, po qd cotreated with ibrutinib at 12.5 mg/kg by micro CT analysis. The format is functional, organism-based.
Data set [7] deals with Tyrosine-protein kinase Lyn (Homo sapiens, UniProt P07948). Kind of data set: Inhibition of human recombinant LYN using biotinyl-beta amyloid beta amyloid beta AKVEKIGEGTYGVVYK as substrate measured after 120 mins in the presence of ATP by HTRF assay.
For data set [8], the target named is T1, Tyrosine-protein kinase BTK. Kind of data set: Inhibition of BTK (unknown origin) at 0.1 uM in the presence of ATP by caliper mobility shift assay relative to control.
Data set [9] deals with Cytoplasmic tyrosine-protein kinase BMX (Homo sapiens, UniProt P51813). As to the kind of experiment: Inhibition of BMX (unknown origin).
In data set [10] the target is T1, Tyrosine-protein kinase BTK. Kind of data set: Inhibition of BTK in human Daudi cells assessed as reduction in PLCgamma-2 phosphorylation at Try1217 residue at 1000 nM after1 hr by Western blot analysis. The format is cell-based. For orientation: A western blot detects proteins with antibodies after separation by electrophoresis.
Data set [11] in a line: Toxicity in DBA1/J mouse model of collagen-induced arthritis assessed as effect on body weight at 30 to 60 mg/kg, po qd. The format is organism-based. Particulars: in vivo.
For data set [12], the target named is T1, Tyrosine-protein kinase BTK. As to the kind of experiment: Inhibition of BTK (unknown origin) at 1 uM in the presence of ATP by caliper mobility shift assay relative to control.
Data set [13] deals with JeKo-1. Kind of data set: Antiproliferative activity against human JeKo1 cells. The format is functional, cell-based. To be noted: Homo sapiens, JeKo-1.
The target of data set [14] is Tyrosine-protein kinase JAK3 (Homo sapiens, UniProt P52333). As to the kind of experiment: Inhibition of human recombinant JAK3 using Ulight-CAGAGAIETDKEYYTVKD measured after 60 mins in the presence of ATP by LANCE method.
Data set [15] has as its target T1, Tyrosine-protein kinase BTK. As to the kind of experiment: Inhibition of BTK in human Ramos cells assessed as reduction in PLCgamma-2 phosphorylation at Try1217 residue at 1000 nM after1 hr by Western blot analysis. The format is cell-based.
Data set [16] deals with Tyrosine-protein kinase HCK (Homo sapiens, UniProt P08631). As to the kind of experiment: Inhibition of HCK (unknown origin).
Data set [17] has as its target T1, Tyrosine-protein kinase BTK. Kind of data set: Inhibition of BTK in human JeKo1 cells assessed as reduction in PLCgamma-2 phosphorylation at Try1217 residue at 1000 nM after1 hr by Western blot analysis. The format is cell-based.
The subject of data set [18] is Mus musculus. As to the kind of experiment: Antiarthritic activity in DBA1/J mouse model of collagen-induced arthritis assessed as reduction in clinical arthritic score at 30 mg/kg to 60 mg/kg, po qd. The format is functional, organism-based.
Data set [19] addresses Tyrosine-protein kinase Fgr (Homo sapiens, UniProt P09769). As to the kind of experiment: Inhibition of human recombinant FGR using Ulight-TK peptide as substrate measured after 60 mins in the presence of ATP by LANCE method.
Data set [20] concerns the target Tyrosine-protein kinase TXK (Homo sapiens, UniProt P42681). Kind of data set: Inhibition of human recombinant TXK using Ulight-Poly GAT[EAY(1:1:1) as substrate measured after 30 mins in the presence of ATP by LANCE method.
The target of data set [21] is T1, Tyrosine-protein kinase BTK. Kind of data set: Inhibition of BTK auto phosphorylation at Tyr223 residue in human Ramos cells at 100 nM measured after 1 hr by Western blot analysis. The format is cell-based.
In data set [22] the test system is Ramos. As to the kind of experiment: Antiproliferative activity against human Ramos cells. The format is functional, cell-based. Particulars: Homo sapiens, Ramos.
Data set [23] deals with Daudi. As to the kind of experiment: Antiproliferative activity against human Daudi cells. The format is functional, cell-based. To be noted: Homo sapiens, Daudi.
In data set [24] the target is T1, Tyrosine-protein kinase BTK. Kind of data set: Inhibition of BTK auto phosphorylation at Tyr223 residue in human JeKo1 cells at 100 nM measured after 1 hr by Western blot analysis. The format is cell-based.
Data set [25] addresses Receptor tyrosine-protein kinase erbB-4 (Homo sapiens, UniProt Q15303). Kind of data set: Inhibition of HER4 (unknown origin).
Data set [26] deals with Tyrosine-protein kinase Tec (Homo sapiens, UniProt P42680). As to the kind of experiment: Inhibition of TEC (unknown origin).
Data set [27] concerns Mus musculus. Kind of data set: Antiarthritic activity in DBA1/J mouse model of collagen-induced arthritis assessed as reduction in joint damage at 60 mg/kg, po qd by H and E staining based assay. The format is functional, organism-based.
Data set [28] deals with Epidermal growth factor receptor (Homo sapiens, UniProt P00533). Kind of data set: Inhibition of human recombinant EGFR using Ulight-CAGAGAIETDKEYYTVKD measured after 15 mins in the presence of ATP by LANCE method.
Data set [29] concerns the target T1, Tyrosine-protein kinase BTK. As to the kind of experiment: Inhibition of BTK auto phosphorylation at Tyr223 residue in human Daudi cells at 100 nM measured after 1 hr by Western blot analysis. The format is cell-based.
The subject of data set [30] is Mus musculus. Kind of data set: Antiarthritic activity in DBA1/J mouse model of collagen-induced arthritis assessed as reduction in cartilage damage at 30 mg/kg, po qd by H and E staining based assay. The format is functional, organism-based.
Data set [31] deals with Tyrosine-protein kinase Yes (Homo sapiens, UniProt P07947). Kind of data set: Inhibition of human recombinant YES using biotinyl-beta amyloid beta amyloid beta AYQAEENTYDEYEN as substrate measured after 30 mins in the presence of ATP by HTRF assay.
Data set [32] deals with Mus musculus. As to the kind of experiment: Antiarthritic activity in DBA1/J mouse model of collagen-induced arthritis assessed as reduction in cellular infiltration at 60 mg/kg, po qd by Safranin O-staining based assay. The format is functional, organism-based.
Data set [33] relates to Mus musculus. Kind of data set: Antiarthritic activity in DBA1/J mouse model of collagen-induced arthritis assessed as reduction in bone erosion at 30 mg/kg, po qd by H and E staining based assay. The format is functional, organism-based.
Data set [34] has as its target Tyrosine-protein kinase Blk (Homo sapiens, UniProt P51451). As to the kind of experiment: Inhibition of BLK (unknown origin).
Data set [35] concerns the target Tyrosine-protein kinase ITK/TSK (Homo sapiens, UniProt Q08881). Kind of data set: Inhibition of human recombinant ITK using Ulight-TK peptide as substrate measured after 30 mins in the presence of ATP by LANCE method.
Data set [36] concerns Mus musculus. Kind of data set: Antiarthritic activity in DBA1/J mouse model of collagen-induced arthritis assessed as reduction in reduction in paw thickness at 30 mg/kg to 60 mg/kg, po qd. The format is functional, organism-based.
Data set [37] concerns the target Tyrosine-protein kinase Fyn (Homo sapiens, UniProt P06241). Kind of data set: Inhibition of human recombinant FYN using biotinyl-beta amyloid beta amyloid beta AYQAEENTYDEYEN as substrate measured after 60 mins in the presence of ATP by HTRF assay.
Data set [38] concerns Mus musculus. As to the kind of experiment: Antiarthritic activity in DBA1/J mouse model of collagen-induced arthritis assessed as reduction in bone erosion at 12.5 mg/kg, po qd by H and E staining based assay. The format is functional, organism-based.
Data set [39] has as its system Mus musculus. Kind of data set: Antiarthritic activity in DBA1/J mouse model of collagen-induced arthritis assessed as reduction in cartilage damage at 12.5 mg/kg, po qd by H and E staining based assay. The format is functional, organism-based.

T1 sequence (Q06187 whole entry): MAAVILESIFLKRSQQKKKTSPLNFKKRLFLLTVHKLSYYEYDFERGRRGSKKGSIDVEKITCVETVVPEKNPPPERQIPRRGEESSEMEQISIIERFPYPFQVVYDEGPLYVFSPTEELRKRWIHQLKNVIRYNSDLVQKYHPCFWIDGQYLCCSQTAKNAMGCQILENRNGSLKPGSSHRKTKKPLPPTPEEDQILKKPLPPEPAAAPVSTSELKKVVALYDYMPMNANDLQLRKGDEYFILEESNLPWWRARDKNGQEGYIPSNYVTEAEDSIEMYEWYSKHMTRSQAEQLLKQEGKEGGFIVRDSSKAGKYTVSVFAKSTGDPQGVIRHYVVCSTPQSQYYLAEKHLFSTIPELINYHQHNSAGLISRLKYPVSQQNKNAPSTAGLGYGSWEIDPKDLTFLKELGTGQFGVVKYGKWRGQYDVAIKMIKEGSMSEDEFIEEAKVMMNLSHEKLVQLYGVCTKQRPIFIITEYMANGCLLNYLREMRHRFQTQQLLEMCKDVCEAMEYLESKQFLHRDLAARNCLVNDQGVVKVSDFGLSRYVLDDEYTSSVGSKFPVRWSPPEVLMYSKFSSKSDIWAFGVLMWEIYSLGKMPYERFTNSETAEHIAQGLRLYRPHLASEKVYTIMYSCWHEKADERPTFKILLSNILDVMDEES
Tyrosine-protein kinase JAK3, sequence (P52333 whole entry): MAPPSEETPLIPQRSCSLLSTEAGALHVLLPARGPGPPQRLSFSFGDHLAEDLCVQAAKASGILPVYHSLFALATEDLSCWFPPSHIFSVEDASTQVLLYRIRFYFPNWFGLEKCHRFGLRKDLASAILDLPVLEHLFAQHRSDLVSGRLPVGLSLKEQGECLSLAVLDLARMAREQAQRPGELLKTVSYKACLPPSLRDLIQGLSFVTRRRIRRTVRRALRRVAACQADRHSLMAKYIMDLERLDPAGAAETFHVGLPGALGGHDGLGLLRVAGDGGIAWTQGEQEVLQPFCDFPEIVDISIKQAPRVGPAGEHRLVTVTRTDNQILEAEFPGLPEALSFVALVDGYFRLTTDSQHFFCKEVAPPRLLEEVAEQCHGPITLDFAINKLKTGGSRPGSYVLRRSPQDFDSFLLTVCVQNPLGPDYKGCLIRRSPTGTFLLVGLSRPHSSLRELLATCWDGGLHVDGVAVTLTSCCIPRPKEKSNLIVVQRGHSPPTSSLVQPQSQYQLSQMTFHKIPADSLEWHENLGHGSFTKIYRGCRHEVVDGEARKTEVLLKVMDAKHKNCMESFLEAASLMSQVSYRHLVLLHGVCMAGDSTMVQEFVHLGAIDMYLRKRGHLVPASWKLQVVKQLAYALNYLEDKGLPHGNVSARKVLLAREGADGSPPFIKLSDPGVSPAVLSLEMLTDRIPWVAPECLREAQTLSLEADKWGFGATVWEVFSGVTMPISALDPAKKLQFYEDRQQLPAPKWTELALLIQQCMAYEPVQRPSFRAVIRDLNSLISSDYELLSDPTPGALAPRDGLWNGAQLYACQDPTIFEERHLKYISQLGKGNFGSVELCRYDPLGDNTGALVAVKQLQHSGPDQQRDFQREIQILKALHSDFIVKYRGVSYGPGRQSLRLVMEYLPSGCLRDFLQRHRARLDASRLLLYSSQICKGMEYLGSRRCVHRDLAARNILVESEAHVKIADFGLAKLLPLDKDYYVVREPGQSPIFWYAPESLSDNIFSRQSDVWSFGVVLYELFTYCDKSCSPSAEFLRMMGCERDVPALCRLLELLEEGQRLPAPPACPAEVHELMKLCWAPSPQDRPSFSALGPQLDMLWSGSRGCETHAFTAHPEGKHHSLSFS
Tyrosine-protein kinase Lyn, sequence (P07948 whole entry): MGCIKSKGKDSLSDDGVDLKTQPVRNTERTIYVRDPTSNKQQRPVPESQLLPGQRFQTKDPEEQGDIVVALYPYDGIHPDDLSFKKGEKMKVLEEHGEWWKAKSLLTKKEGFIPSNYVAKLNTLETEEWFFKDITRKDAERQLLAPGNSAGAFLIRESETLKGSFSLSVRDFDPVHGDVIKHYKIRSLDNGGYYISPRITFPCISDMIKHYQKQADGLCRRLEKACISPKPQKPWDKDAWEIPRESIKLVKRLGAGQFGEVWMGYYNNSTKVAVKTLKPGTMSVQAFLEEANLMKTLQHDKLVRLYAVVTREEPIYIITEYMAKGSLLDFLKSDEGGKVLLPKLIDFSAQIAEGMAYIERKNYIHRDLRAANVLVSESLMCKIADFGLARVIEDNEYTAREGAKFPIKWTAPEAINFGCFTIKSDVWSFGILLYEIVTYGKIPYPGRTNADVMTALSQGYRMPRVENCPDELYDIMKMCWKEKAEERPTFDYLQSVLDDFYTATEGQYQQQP
Tyrosine-protein kinase Fgr, sequence (P09769 whole entry): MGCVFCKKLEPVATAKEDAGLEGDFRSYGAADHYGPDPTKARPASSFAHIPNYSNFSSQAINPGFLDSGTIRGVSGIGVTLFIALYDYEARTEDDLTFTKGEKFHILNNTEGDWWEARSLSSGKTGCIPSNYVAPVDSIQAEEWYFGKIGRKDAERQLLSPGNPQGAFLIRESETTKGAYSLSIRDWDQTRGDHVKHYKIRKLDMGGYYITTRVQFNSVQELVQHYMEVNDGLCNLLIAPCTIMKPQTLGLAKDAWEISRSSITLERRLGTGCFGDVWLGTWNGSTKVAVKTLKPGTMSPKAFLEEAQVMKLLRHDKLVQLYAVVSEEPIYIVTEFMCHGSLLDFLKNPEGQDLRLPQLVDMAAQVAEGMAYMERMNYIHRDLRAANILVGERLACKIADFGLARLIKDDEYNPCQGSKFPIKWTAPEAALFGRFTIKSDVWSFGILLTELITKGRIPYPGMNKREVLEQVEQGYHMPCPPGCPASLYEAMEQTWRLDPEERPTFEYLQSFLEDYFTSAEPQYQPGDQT
Tyrosine-protein kinase HCK, sequence (P08631 whole entry): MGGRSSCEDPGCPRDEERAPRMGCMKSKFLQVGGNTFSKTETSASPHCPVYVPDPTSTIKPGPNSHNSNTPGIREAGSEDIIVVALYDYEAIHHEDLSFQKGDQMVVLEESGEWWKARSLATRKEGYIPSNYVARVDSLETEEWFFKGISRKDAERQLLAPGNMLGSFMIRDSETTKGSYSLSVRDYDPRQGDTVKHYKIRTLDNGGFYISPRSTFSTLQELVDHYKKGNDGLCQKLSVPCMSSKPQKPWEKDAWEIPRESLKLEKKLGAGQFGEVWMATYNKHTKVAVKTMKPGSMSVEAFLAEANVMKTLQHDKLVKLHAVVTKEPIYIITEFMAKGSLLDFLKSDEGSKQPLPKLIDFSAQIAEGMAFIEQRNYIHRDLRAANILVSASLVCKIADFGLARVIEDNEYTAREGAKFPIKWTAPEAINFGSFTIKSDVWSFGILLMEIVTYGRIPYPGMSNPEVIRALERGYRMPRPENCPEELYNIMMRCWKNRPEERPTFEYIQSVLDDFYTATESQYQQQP
Tyrosine-protein kinase Lck, sequence (P06239 whole entry): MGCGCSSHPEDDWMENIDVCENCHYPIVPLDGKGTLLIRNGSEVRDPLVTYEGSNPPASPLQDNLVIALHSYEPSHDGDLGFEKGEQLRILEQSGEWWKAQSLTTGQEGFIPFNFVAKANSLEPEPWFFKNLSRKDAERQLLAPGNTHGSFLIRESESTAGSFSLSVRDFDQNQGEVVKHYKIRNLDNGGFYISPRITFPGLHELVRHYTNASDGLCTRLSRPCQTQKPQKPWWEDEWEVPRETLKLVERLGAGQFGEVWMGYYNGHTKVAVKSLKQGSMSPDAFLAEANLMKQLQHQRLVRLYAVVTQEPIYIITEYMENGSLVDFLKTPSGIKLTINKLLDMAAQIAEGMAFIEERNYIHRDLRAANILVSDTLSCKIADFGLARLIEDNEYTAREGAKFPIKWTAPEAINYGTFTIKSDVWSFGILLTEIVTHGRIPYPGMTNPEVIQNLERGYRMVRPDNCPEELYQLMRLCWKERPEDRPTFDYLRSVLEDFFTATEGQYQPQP
Tyrosine-protein kinase Fyn, sequence (P06241 whole entry): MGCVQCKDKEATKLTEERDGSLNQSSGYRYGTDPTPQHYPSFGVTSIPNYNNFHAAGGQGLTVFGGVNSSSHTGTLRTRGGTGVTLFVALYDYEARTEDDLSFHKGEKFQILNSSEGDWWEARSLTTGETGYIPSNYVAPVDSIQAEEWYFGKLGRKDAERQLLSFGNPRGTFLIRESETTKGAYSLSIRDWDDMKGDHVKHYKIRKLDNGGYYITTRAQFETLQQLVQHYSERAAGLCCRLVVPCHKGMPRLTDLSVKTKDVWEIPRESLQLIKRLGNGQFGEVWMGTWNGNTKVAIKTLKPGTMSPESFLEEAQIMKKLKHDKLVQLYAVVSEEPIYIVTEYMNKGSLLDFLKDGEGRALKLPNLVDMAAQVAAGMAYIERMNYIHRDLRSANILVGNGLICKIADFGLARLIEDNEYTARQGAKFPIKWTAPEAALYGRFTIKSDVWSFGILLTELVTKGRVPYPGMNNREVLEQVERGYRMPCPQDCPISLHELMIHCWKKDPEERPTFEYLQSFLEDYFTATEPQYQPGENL
Tyrosine-protein kinase Tec, sequence (P42680 whole entry): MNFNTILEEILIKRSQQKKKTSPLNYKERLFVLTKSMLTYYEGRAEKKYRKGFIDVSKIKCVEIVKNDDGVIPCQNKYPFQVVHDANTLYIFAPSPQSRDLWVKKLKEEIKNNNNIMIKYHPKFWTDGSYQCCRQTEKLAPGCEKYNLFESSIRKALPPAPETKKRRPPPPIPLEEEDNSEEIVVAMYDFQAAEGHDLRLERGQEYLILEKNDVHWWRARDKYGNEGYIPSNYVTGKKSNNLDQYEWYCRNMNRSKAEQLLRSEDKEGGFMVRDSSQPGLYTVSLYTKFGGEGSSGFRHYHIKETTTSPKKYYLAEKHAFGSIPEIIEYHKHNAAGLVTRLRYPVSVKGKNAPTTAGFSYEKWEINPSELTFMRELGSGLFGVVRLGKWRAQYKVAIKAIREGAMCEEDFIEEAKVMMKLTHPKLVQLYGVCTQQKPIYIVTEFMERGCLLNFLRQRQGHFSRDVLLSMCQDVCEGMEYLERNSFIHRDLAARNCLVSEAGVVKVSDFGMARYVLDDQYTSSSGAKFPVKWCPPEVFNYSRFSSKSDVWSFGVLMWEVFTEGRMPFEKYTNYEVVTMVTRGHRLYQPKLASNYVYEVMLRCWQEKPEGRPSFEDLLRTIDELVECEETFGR

A word on the IC50: it is the concentration at which inhibition is half-maximal. As a reminder, the inhibition is how much of the control response was suppressed. With `Nc1ncnc2c1c(-c1ccc(Oc3ccccc3)cc1)cn2C[C@H]1CCCN1C[C@@H]1CO1`, the IC50 in data set [1] is 123 nM; in [2], 31 nM; in data set [4], over 1000 nM; in data set [5], 3 nM; in data set [7] it was 10 nM; in data set [9], 83 nM. Also, the half-maximal inhibitory concentration (IC50) in data set [13] was 11100 nM; in data set [14], over 1000 nM; in data set [16], 33 nM; in data set [19], 28 nM; in data set [20] it was 358 nM; in data set [22], 8520 nM. In addition, the half-inhibitory concentration (IC50) is 7040 nM in data set [23]; 385 nM in [25]; 44 nM in data set [26]; over 1000 nM in data set [28]; 86 nM in data set [31]; 10 nM in data set [34]. Further, the half-maximal inhibitory concentration (IC50) in data set [35] is over 1000 nM; in [37], 232 nM. For the same molecule, the result in [3], in [27], in data set [30], in [32] and in [33] was Active. For the same molecule, the Activity result was “Dose-dependent effect” in data set [6], “Non-Toxic” in data set [11], “Dose-dependent effect” in data set [18] and “Dose-dependent effect” in data set [36]. The inhibition in data set [8] came out at 96.6%; in data set [12], 99.8%. The inhibition entry in data set [10], in data set [15], in data set [17], in data set [21], in data set [24] and in data set [29] was “Active” throughout.
As to `C=CC(=O)N1CCC[C@@H](n2nc(-c3ccc(Oc4ccccc4)cc3)c3c(N)ncnc32)C1` [IBRUTINIB], the IC50 in [13] worked out at 1050 nM; in data set [22], 5010 nM; in data set [23], 3920 nM. Besides, in data set [38], the outcome was Active. Also, the outcome in data set [39] was inactive.
